According to the supplement of paper PMC8882468:
± gives the standard deviation of the averaged measurements.

system: MDA-MB-231; experiment: CTG-3D luminescence at 96 h relative to day-0 seeding control (ratio to day 0); higher = more growth / less cytotoxicity; PDxO 3D drug screen, 96 h, CTG-3D normalised to day-0 seeding control.; conditions: 12.5 pM

SMILES | CTG-3D luminescence at 96 h
COc1cc2c(Oc3ccc4[nH]c(C)cc4c3F)ncnc2cc1OCCCN1CCCC1 [cediranib] | 4.34 ± 1.3
CC(C)n1nc(-c2ccc3oc(N)nc3c2)c2c(N)ncnc21 [sapanisertib] | 4.45 ± 1.5
Cc1cc(Nc2ncnc3ccc(NC4=NC(C)(C)CO4)cc23)ccc1Oc1ccn2ncnc2c1 [tucatinib] | 4.57 ± 1.4
C[C@H](NC(=O)CCC(F)(F)F)C(=O)N[C@@H]1C(=O)N(CCO)c2ncccc2-c2ccccc21 [crenigacestat] | 4.47 ± 1.4
C[C@]12CC[C@@H]3c4ccc(O)cc4C[C@@H](CCCCCCCCC[S+]([O-])CCCC(F)(F)C(F)(F)F)[C@H]3[C@@H]1CC[C@@H]2O (some centres not stated) [fulvestrant] | 4.61 ± 1.4
O=C(c1ccc(F)c(F)c1Nc1ccc(I)cc1F)N1CC(O)([C@@H]2CCCCN2)C1 [cobimetinib] | 4.37 ± 1.3
O=C(/C=C/c1cccnc1)NCCCCC1CCN(C(=O)c2ccccc2)CC1 [FK866] | 4.37 ± 1.3
CS(=O)(=O)c1ccc(C(=O)Nc2ccc(Cl)c(-c3ccccn3)c2)c(Cl)c1 [vismodegib] | 4.58 ± 1.3
C=CCn1c(=O)c2cnc(Nc3ccc(N4CCN(C)CC4)cc3)nc2n1-c1cccc(C(C)(C)O)n1 [adavosertib] | 4.36 ± 1.4

same assay, conditions: 0.00025 µM

SMILES | CTG-3D luminescence at 96 h
COc1cc2c(Oc3ccc4[nH]c(C)cc4c3F)ncnc2cc1OCCCN1CCCC1 [cediranib] | 4.3 ± 1.4
CC(C)n1nc(-c2ccc3oc(N)nc3c2)c2c(N)ncnc21 [sapanisertib] | 4.42 ± 1.5
Cc1cc(Nc2ncnc3ccc(NC4=NC(C)(C)CO4)cc23)ccc1Oc1ccn2ncnc2c1 [tucatinib] | 4.49 ± 1.5
C[C@H](NC(=O)CCC(F)(F)F)C(=O)N[C@@H]1C(=O)N(CCO)c2ncccc2-c2ccccc21 [crenigacestat] | 4.32 ± 1.4
C[C@]12CC[C@@H]3c4ccc(O)cc4C[C@@H](CCCCCCCCC[S+]([O-])CCCC(F)(F)C(F)(F)F)[C@H]3[C@@H]1CC[C@@H]2O (some centres not stated) [fulvestrant] | 4.53 ± 1.5
O=C(c1ccc(F)c(F)c1Nc1ccc(I)cc1F)N1CC(O)([C@@H]2CCCCN2)C1 [cobimetinib] | 4.46 ± 1.5
O=C(/C=C/c1cccnc1)NCCCCC1CCN(C(=O)c2ccccc2)CC1 [FK866] | 4.45 ± 1.5
CS(=O)(=O)c1ccc(C(=O)Nc2ccc(Cl)c(-c3ccccn3)c2)c(Cl)c1 [vismodegib] | 4.44 ± 1.4
C=CCn1c(=O)c2cnc(Nc3ccc(N4CCN(C)CC4)cc3)nc2n1-c1cccc(C(C)(C)O)n1 [adavosertib] | 4.34 ± 1.4

same assay, conditions: 0.005 µM

SMILES | CTG-3D luminescence at 96 h
COc1cc2c(Oc3ccc4[nH]c(C)cc4c3F)ncnc2cc1OCCCN1CCCC1 [cediranib] | 4.48 ± 1.5
CC(C)n1nc(-c2ccc3oc(N)nc3c2)c2c(N)ncnc21 [sapanisertib] | 4.45 ± 1.4
Cc1cc(Nc2ncnc3ccc(NC4=NC(C)(C)CO4)cc23)ccc1Oc1ccn2ncnc2c1 [tucatinib] | 4.6 ± 1.5
C[C@H](NC(=O)CCC(F)(F)F)C(=O)N[C@@H]1C(=O)N(CCO)c2ncccc2-c2ccccc21 [crenigacestat] | 4.4 ± 1.4
C[C@]12CC[C@@H]3c4ccc(O)cc4C[C@@H](CCCCCCCCC[S+]([O-])CCCC(F)(F)C(F)(F)F)[C@H]3[C@@H]1CC[C@@H]2O (some centres not stated) [fulvestrant] | 4.7 ± 1.6
O=C(c1ccc(F)c(F)c1Nc1ccc(I)cc1F)N1CC(O)([C@@H]2CCCCN2)C1 [cobimetinib] | 4.46 ± 1.5
O=C(/C=C/c1cccnc1)NCCCCC1CCN(C(=O)c2ccccc2)CC1 [FK866] | 3.77 ± 1.3
CS(=O)(=O)c1ccc(C(=O)Nc2ccc(Cl)c(-c3ccccn3)c2)c(Cl)c1 [vismodegib] | 4.54 ± 1.4
C=CCn1c(=O)c2cnc(Nc3ccc(N4CCN(C)CC4)cc3)nc2n1-c1cccc(C(C)(C)O)n1 [adavosertib] | 4.48 ± 1.6

same assay, conditions: 0.1 µM

SMILES | CTG-3D luminescence at 96 h
COc1cc2c(Oc3ccc4[nH]c(C)cc4c3F)ncnc2cc1OCCCN1CCCC1 [cediranib] | 4.29 ± 1.4
CC(C)n1nc(-c2ccc3oc(N)nc3c2)c2c(N)ncnc21 [sapanisertib] | 2.89 ± 0.7
Cc1cc(Nc2ncnc3ccc(NC4=NC(C)(C)CO4)cc23)ccc1Oc1ccn2ncnc2c1 [tucatinib] | 4.56 ± 1.4
C[C@H](NC(=O)CCC(F)(F)F)C(=O)N[C@@H]1C(=O)N(CCO)c2ncccc2-c2ccccc21 [crenigacestat] | 4.27 ± 1.2
C[C@]12CC[C@@H]3c4ccc(O)cc4C[C@@H](CCCCCCCCC[S+]([O-])CCCC(F)(F)C(F)(F)F)[C@H]3[C@@H]1CC[C@@H]2O (some centres not stated) [fulvestrant] | 4.58 ± 1.3
O=C(c1ccc(F)c(F)c1Nc1ccc(I)cc1F)N1CC(O)([C@@H]2CCCCN2)C1 [cobimetinib] | 3.88 ± 1.1
O=C(/C=C/c1cccnc1)NCCCCC1CCN(C(=O)c2ccccc2)CC1 [FK866] | 0.298 ± 0.16
CS(=O)(=O)c1ccc(C(=O)Nc2ccc(Cl)c(-c3ccccn3)c2)c(Cl)c1 [vismodegib] | 4.53 ± 1.3
C=CCn1c(=O)c2cnc(Nc3ccc(N4CCN(C)CC4)cc3)nc2n1-c1cccc(C(C)(C)O)n1 [adavosertib] | 4.31 ± 1.4

same assay, conditions: 1 µM

SMILES | CTG-3D luminescence at 96 h
COc1cc2c(Oc3ccc4[nH]c(C)cc4c3F)ncnc2cc1OCCCN1CCCC1 [cediranib] | 4.44 ± 1.6
CC(C)n1nc(-c2ccc3oc(N)nc3c2)c2c(N)ncnc21 [sapanisertib] | 2.2 ± 0.52
Cc1cc(Nc2ncnc3ccc(NC4=NC(C)(C)CO4)cc23)ccc1Oc1ccn2ncnc2c1 [tucatinib] | 4.67 ± 1.5
C[C@H](NC(=O)CCC(F)(F)F)C(=O)N[C@@H]1C(=O)N(CCO)c2ncccc2-c2ccccc21 [crenigacestat] | 4.51 ± 1.4
C[C@]12CC[C@@H]3c4ccc(O)cc4C[C@@H](CCCCCCCCC[S+]([O-])CCCC(F)(F)C(F)(F)F)[C@H]3[C@@H]1CC[C@@H]2O (some centres not stated) [fulvestrant] | 4.8 ± 1.5
O=C(c1ccc(F)c(F)c1Nc1ccc(I)cc1F)N1CC(O)([C@@H]2CCCCN2)C1 [cobimetinib] | 2.4 ± 1.1
O=C(/C=C/c1cccnc1)NCCCCC1CCN(C(=O)c2ccccc2)CC1 [FK866] | 0.237 ± 0.14
CS(=O)(=O)c1ccc(C(=O)Nc2ccc(Cl)c(-c3ccccn3)c2)c(Cl)c1 [vismodegib] | 4.66 ± 1.5
C=CCn1c(=O)c2cnc(Nc3ccc(N4CCN(C)CC4)cc3)nc2n1-c1cccc(C(C)(C)O)n1 [adavosertib] | 3.06 ± 0.89

same assay, conditions: 10 µM

SMILES | CTG-3D luminescence at 96 h
COc1cc2c(Oc3ccc4[nH]c(C)cc4c3F)ncnc2cc1OCCCN1CCCC1 [cediranib] | 1.46 ± 0.69
CC(C)n1nc(-c2ccc3oc(N)nc3c2)c2c(N)ncnc21 [sapanisertib] | 1.22 ± 0.26
Cc1cc(Nc2ncnc3ccc(NC4=NC(C)(C)CO4)cc23)ccc1Oc1ccn2ncnc2c1 [tucatinib] | 4.64 ± 1.4
C[C@H](NC(=O)CCC(F)(F)F)C(=O)N[C@@H]1C(=O)N(CCO)c2ncccc2-c2ccccc21 [crenigacestat] | 4.53 ± 1.3
C[C@]12CC[C@@H]3c4ccc(O)cc4C[C@@H](CCCCCCCCC[S+]([O-])CCCC(F)(F)C(F)(F)F)[C@H]3[C@@H]1CC[C@@H]2O (some centres not stated) [fulvestrant] | 4.81 ± 1.4
O=C(c1ccc(F)c(F)c1Nc1ccc(I)cc1F)N1CC(O)([C@@H]2CCCCN2)C1 [cobimetinib] | 1.24 ± 0.67
O=C(/C=C/c1cccnc1)NCCCCC1CCN(C(=O)c2ccccc2)CC1 [FK866] | 0.236 ± 0.13
CS(=O)(=O)c1ccc(C(=O)Nc2ccc(Cl)c(-c3ccccn3)c2)c(Cl)c1 [vismodegib] | 4.73 ± 1.4
C=CCn1c(=O)c2cnc(Nc3ccc(N4CCN(C)CC4)cc3)nc2n1-c1cccc(C(C)(C)O)n1 [adavosertib] | 1.05 ± 0.27

same assay, conditions: 100 µM

SMILES | CTG-3D luminescence at 96 h
COc1cc2c(Oc3ccc4[nH]c(C)cc4c3F)ncnc2cc1OCCCN1CCCC1 [cediranib] | 0.0107 ± 0.0057
CC(C)n1nc(-c2ccc3oc(N)nc3c2)c2c(N)ncnc21 [sapanisertib] | 0.518 ± 0.11
Cc1cc(Nc2ncnc3ccc(NC4=NC(C)(C)CO4)cc23)ccc1Oc1ccn2ncnc2c1 [tucatinib] | 0.058 ± 0.017
C[C@H](NC(=O)CCC(F)(F)F)C(=O)N[C@@H]1C(=O)N(CCO)c2ncccc2-c2ccccc21 [crenigacestat] | 4.69 ± 1.3
C[C@]12CC[C@@H]3c4ccc(O)cc4C[C@@H](CCCCCCCCC[S+]([O-])CCCC(F)(F)C(F)(F)F)[C@H]3[C@@H]1CC[C@@H]2O (some centres not stated) [fulvestrant] | 5.18 ± 1.5
O=C(c1ccc(F)c(F)c1Nc1ccc(I)cc1F)N1CC(O)([C@@H]2CCCCN2)C1 [cobimetinib] | -0.00771 ± 0.0062
O=C(/C=C/c1cccnc1)NCCCCC1CCN(C(=O)c2ccccc2)CC1 [FK866] | 0.146 ± 0.08
CS(=O)(=O)c1ccc(C(=O)Nc2ccc(Cl)c(-c3ccccn3)c2)c(Cl)c1 [vismodegib] | 4 ± 1.1
C=CCn1c(=O)c2cnc(Nc3ccc(N4CCN(C)CC4)cc3)nc2n1-c1cccc(C(C)(C)O)n1 [adavosertib] | 1.27 ± 0.38

same assay, conditions: 625 fM

SMILES | CTG-3D luminescence at 96 h
COc1cc2c(Oc3ccc4[nH]c(C)cc4c3F)ncnc2cc1OCCCN1CCCC1 [cediranib] | 4.45 ± 1.4
CC(C)n1nc(-c2ccc3oc(N)nc3c2)c2c(N)ncnc21 [sapanisertib] | 4.61 ± 1.5
Cc1cc(Nc2ncnc3ccc(NC4=NC(C)(C)CO4)cc23)ccc1Oc1ccn2ncnc2c1 [tucatinib] | 4.58 ± 1.4
C[C@H](NC(=O)CCC(F)(F)F)C(=O)N[C@@H]1C(=O)N(CCO)c2ncccc2-c2ccccc21 [crenigacestat] | 4.5 ± 1.4
C[C@]12CC[C@@H]3c4ccc(O)cc4C[C@@H](CCCCCCCCC[S+]([O-])CCCC(F)(F)C(F)(F)F)[C@H]3[C@@H]1CC[C@@H]2O (some centres not stated) [fulvestrant] | 4.69 ± 1.4
O=C(c1ccc(F)c(F)c1Nc1ccc(I)cc1F)N1CC(O)([C@@H]2CCCCN2)C1 [cobimetinib] | 4.43 ± 1.4
O=C(/C=C/c1cccnc1)NCCCCC1CCN(C(=O)c2ccccc2)CC1 [FK866] | 4.49 ± 1.3
CS(=O)(=O)c1ccc(C(=O)Nc2ccc(Cl)c(-c3ccccn3)c2)c(Cl)c1 [vismodegib] | 4.62 ± 1.4
C=CCn1c(=O)c2cnc(Nc3ccc(N4CCN(C)CC4)cc3)nc2n1-c1cccc(C(C)(C)O)n1 [adavosertib] | 4.41 ± 1.3
